Test results reported in patent publication US7348427B2, “Antipathogenic benzamide compounds” (Genesoft Pharmaceuticals, Inc., priority 2001, dated 2008).

Columns and labels:
[1] = test system: Staphylococcus aureus (ATCC 13709, a methicillin sensitive strain (MSSA)); assay: MIC, NCCLS broth microdilution assay; format: cell-based; details: E = S. aureus ATCC 13709
Description: (§1) In vitro biological activity data were collected for a variety of microorganisms, including Bacillus cereus (ATCC 11778), Staphylococcus aureus (ATCC 27660, a methicillin resistant strain (MRSA); ATCC 13709, a methicillin sensitive strain (MSSA)); Streptococcus pneumoniae (ATCC 51422, a penicillin resistant strain (PRSP)), Enterococcus faecium (ATCC 51559, a vancomycin resistant strain (VRE)), and Staphylococcus epidermidis (ATCC 12228). Additionally, antifungal activity data were collected for Candida albicans (ATCC 38247).
(§2) Compounds according to this invention were screened for their in vitro activities against selected species of bacteria and fungi. The minimal inhibition concentration (MIC) of these compounds was determined using the National Committee for Clinical Laboratory Standards (NCCLS) broth microdilution assay in microtiter plates, as set forth in: (1) the guidelines of the National. Committee for Clinical Laboratory Standards (NCCLS) Document M7-A4 (NCCLS, 1997); (2) the guidelines of the National Committee for Clinical Laboratory Standards (NCCLS) Document M11-A4 (NCCLS, 1997); and (3) the guidelines and reference method of the National Committee for Clinical Laboratory Standards (NCCLS) Document M27-T (NCCLS, 1995). For antifungal assays, the method recommended in Murray, P R., 1995 Manual of Clinical Microbiology (ASM Press, Washington, D.C.), was employed.

[2] = test system: Bacillus cereus (ATCC 11778); assay: MIC, NCCLS broth microdilution assay; format: cell-based; details: A = B. cereus ATCC 11778
Description: as §1, §2

[3] = test system: Staphylococcus aureus (ATCC 27660, a methicillin resistant strain (MRSA)); assay: MIC, NCCLS broth microdilution assay; format: cell-based; details: F = S. aureus ATCC 27660
Description: as §1, §2

[4] = test system: Candida albicans (ATCC 38247); assay: Antifungal MIC assay; format: cell-based; details: B = C. albicans ATCC 38247
Description: as §1, §2

E. faecalis ATCC 29212 = assay: MIC, NCCLS broth microdilution assay; format: cell-based, Enterococcus faecalis; details: C = E. faecalis ATCC 29212
Description: as §2

S. pneumoniae ATCC 49619 = assay: MIC, NCCLS broth microdilution assay; format: cell-based, Streptococcus pneumoniae; details: H = S. pneumoniae ATCC 49619
Description: as §2

| Structure (SMILES) | Minimum Inhibitory Concentration (MIC) [1] | Minimum Inhibitory Concentration (MIC) [2] | Minimum Inhibitory Concentration (MIC) [3] | Minimum Inhibitory Concentration (MIC) [4] [µg/mL] | Minimum Inhibitory Concentration (MIC) (E. faecalis ATCC 29212) | Minimum Inhibitory Concentration (MIC) (S. pneumoniae ATCC 49619) |
| --- | --- | --- | --- | --- | --- | --- |
| CCN(CC)CCNC(=O)c1cc(NC(=O)c2cc(NC(=O)c3ccc(Cl)cc3F)c[nH]2)cn1C [Compound A-20] | ++ (++ = 4 < MIC < 12) | + (+ = 12 ≦ MIC ≦ 32) | ++ (++ = 4 < MIC < 12) | >32 | +++ (+++ = MIC ≦ 4) | +++ (+++ = MIC ≦ 4) |
| Cn1cc(NC(=O)c2cc(NC(=O)c3ccc(Cl)cc3F)c[nH]2)cc1C(=O)NCCN1CCC(O)CC1 [Compound A-23] | + (+ = 12 ≦ MIC ≦ 32) | + (+ = 12 ≦ MIC ≦ 32) | + (+ = 12 ≦ MIC ≦ 32) | >32 | + (+ = 12 ≦ MIC ≦ 32) | +++ (+++ = MIC ≦ 4) |
| Cn1cc(NC(=O)c2cc(NC(=O)c3cc(NC(=O)c4ccc(Cl)cc4F)c[nH]3)cn2C)cc1C(=O)NCCc1cccnc1 [Compound A-24] | >32 µg/mL | +++ (+++ = MIC ≦ 4) | +++ (+++ = MIC ≦ 4) | >32 | ++ (++ = 4 < MIC < 12) | +++ (+++ = MIC ≦ 4) |
| Cn1cc(NC(=O)c2cc(NC(=O)c3ccc(Cl)cc3F)c[nH]2)cc1C(=O)NCCc1ccncc1 [Compound A-25] | +++ (+++ = MIC ≦ 4) | ++ (++ = 4 < MIC < 12) | +++ (+++ = MIC ≦ 4) | >32 | +++ (+++ = MIC ≦ 4) | +++ (+++ = MIC ≦ 4) |
| Cn1cc(NC(=O)c2cc(NC(=O)c3cc(NC(=O)c4cc(NC(=O)c5ccc(Cl)cc5F)c[nH]4)cn3C)cn2C)cc1C(=O)NCCN1CCOCC1 [Compound A-27] | + (+ = 12 ≦ MIC ≦ 32) | +++ (+++ = MIC ≦ 4) | + (+ = 12 ≦ MIC ≦ 32) | >32 | ++ (++ = 4 < MIC < 12) | +++ (+++ = MIC ≦ 4) |
| Cn1cc(NC(=O)c2cc(NC(=O)c3cc(NC(=O)c4ccc(Cl)cc4F)c[nH]3)cn2C)cc1C(=O)NCCN1CCSC1 [Compound A-29] | +++ (+++ = MIC ≦ 4) | +++ (+++ = MIC ≦ 4) | ++ (++ = 4 < MIC < 12) | >32 | + (+ = 12 ≦ MIC ≦ 32) | +++ (+++ = MIC ≦ 4) |
| Cn1cc(NC(=O)c2cc(NC(=O)c3cc(NC(=O)c4ccc(Cl)c(Cl)c4)c[nH]3)cn2C)cc1C(=O)NCCN1CCOCC1 [Compound A-30] | +++ (+++ = MIC ≦ 4) | +++ (+++ = MIC ≦ 4) | +++ (+++ = MIC ≦ 4) | >32 | +++ (+++ = MIC ≦ 4) | +++ (+++ = MIC ≦ 4) |
| Cn1cc(NC(=O)c2cc(NC(=O)c3cc(NC(=O)c4ccc(F)cc4F)cn3C)cn2C)cc1C(=O)NCCCN1CCCCC1 [Compound B-4] | ++ (++ = 4 < MIC < 12) | ++ (++ = 4 < MIC < 12) | ++ (++ = 4 < MIC < 12) | >32 | ++ (++ = 4 < MIC < 12) | ++ (++ = 4 < MIC < 12) |
| Cn1cc(NC(=O)c2cc(NC(=O)c3cc(NC(=O)c4ccc(F)cc4F)cn3C)cn2C)cc1C(=O)NCCN1CCCC1 [Compound B-5] | +++ (+++ = MIC ≦ 4) | +++ (+++ = MIC ≦ 4) | +++ (+++ = MIC ≦ 4) | >32 | +++ (+++ = MIC ≦ 4) | +++ (+++ = MIC ≦ 4) |
